{"source": "patent EP0364584A1", "about": "“ANTIDOTE FOR ORGANIC PHOSPHORUS COMPOUND POISONING” (priority 1988, dated 1989)", "key": {"[1]": {"molecular_target": "T1, Azetylcholinesterase des menschlichen Bluts (Homo sapiens, UniProt P22303)", "T1 construct": "Cholinesterase des Grundgerüstes der Erythrozyten des menschlichen Bluts; from tissue; host or cells: human erythrocyte stroma (ghosts)", "T1 sequence (P22303 other isoform, or with tags, fused parts or gaps)": "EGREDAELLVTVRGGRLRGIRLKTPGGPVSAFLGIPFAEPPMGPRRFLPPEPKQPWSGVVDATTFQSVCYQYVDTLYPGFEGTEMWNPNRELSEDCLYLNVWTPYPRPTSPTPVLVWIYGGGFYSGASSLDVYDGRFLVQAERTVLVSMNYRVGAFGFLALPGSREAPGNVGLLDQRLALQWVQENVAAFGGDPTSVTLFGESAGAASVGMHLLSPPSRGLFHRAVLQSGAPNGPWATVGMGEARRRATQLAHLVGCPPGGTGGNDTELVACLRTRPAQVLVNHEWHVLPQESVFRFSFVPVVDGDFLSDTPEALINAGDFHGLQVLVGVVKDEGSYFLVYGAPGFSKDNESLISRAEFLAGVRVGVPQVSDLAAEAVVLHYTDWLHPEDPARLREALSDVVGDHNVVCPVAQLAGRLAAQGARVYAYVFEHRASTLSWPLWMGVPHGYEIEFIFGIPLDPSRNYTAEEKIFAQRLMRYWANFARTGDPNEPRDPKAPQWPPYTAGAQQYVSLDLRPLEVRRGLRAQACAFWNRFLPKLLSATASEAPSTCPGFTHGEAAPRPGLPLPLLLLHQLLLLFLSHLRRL", "test": "Reactivation in vitro of erythrocyte cholinesterase inhibited by organophosphorus compounds (potentiometric titration)", "type": "biochemical", "settings": "reactivator 1.10^-4 M01/1, 25°C, pH 7,5"}, "[2]": {"test": "Content of the drugs in blood and brain after intramuscular administration (Askew method)", "type": "in vivo, Ratten", "settings": "rat, im, Ratten; for concentration at 2 h: 2 St., read-out: Konzentration (µg/g) 2 St. (converted); for concentration at 5 min: read-out: Konzentration (µg/g) 5 min; for concentration at 20 min: read-out: Konzentration (µg/g) 20 min (converted); for concentration at 0.5 h: 30 min, read-out: Konzentration (µg/g) 30 min; for concentration at 1 h: I St., read-out: Konzentration (µg/g) I St.; for concentration at 10 min: IO min, read-out: Konzentration (µg/g) IO min (converted)", "protocol": "Mit Hilfe der Methode von Askew (1956) wurde in der Dynamik der Gehalt des erfindungsgemäßen Arzneimittels im Blut und Gehirn der Tiere untersucht. Die Untersuchungen wurden im Vergleich zum bekannten Präparak TMB-4 vorgenommen. Die Geschwindigkeit des Eindringens beider Präparate ins Blut und deren Konzentration wurden bei der-intramuskulären Einführung in Dosen von 20 ..und 50 mg/kg und der Gehirnspiegel - in einer Dosis von 50 mg/kg bestimmt. […]\nEs wurde festgestellt, daß die Präparate schnell (nach 5 min) von der Einführungsstelle ins Blut eindringen, dabei wurde unabhängig von der Prüfdosis der Präparate deren Maximalgehalt im Blut 20 min nach der Einführung beobachtet, zwar erhöhte die Vergrößerung der Dosis der Präparate bis 50 mg/kg wesentlich deren Konzentrationsniveau während der ganzen Beobachtungsfrist.\nDie im Vergleich zu TMB-4 durchgeführten Untersuchungen haben ergeben, dass während der ersten Stunde der Blutgehalt und das Anwachsen der Konzentrationen beider Präparate gleich waren. […] Die Untersuchungsergebnisse sind in der Tabelle 3 angeführt.\nNach den Ergebnissen der durchgeführten Untersuchungen wurde festgestellt, dass das erfindungsgemässe Arz- neimittel bei der intramuskulären Einführung schnell ins Blut und Gehirn des Tieres eindringt und zum Unterschied von TMB-4 eine längere Zeit im 3lutstrom zirkuliert und von 5 min an bis 4 Stunden Beobachtung im Gehirn in bedeutend grösseren Mengen enthalten ist."}, "[3]": {"settings": "blood, Blut, Dosis 20 mg/kg intramuskulär"}, "[4]": {"settings": "blood, Blut, Dosis 50 mg/kg intramuskulär"}, "[5]": {"settings": "brain, Gehirn, Dosis 50 mg/kg intramuskulär"}}, "note": "Read-outs that look alike come from different tables or passages of the source.", "data": [{"smiles": "ON=Cc1cc[n+](CCC[n+]2ccc(C=NO)cc2)cc1", "note": "[TMB-4, Trimethylen-1,3-bis-(4-oxyiminomethylpyridinium)bromid, reference compound]", "values": [{"measurement": "activity at 100 µM", "setting": "[1]; 0.5 h, pH 7, inhibited with O,O-Dimethyl-(2,2,2-trichlor-1-oxyäthyl) phosphonat, 0,5 h, read-out: Aktivität der Azetylcholinesterase in % (Reaktivationszeit in Stunden) 0,5", "result": 40, "unit": "%"}, {"measurement": "activity at 100 µM", "setting": "[1]; 0.5 h, pH 7, inhibited with O,O-Dimethyl-S-(1,2-dikarbäthoxyäthyl)-dithiophosphat, 0,5 h, read-out: Aktivität der Azetylcholinesterase in % (Reaktivationszeit in Stunden) 0,5", "result": 27.4, "unit": "%"}, {"measurement": "activity at 100 µM", "setting": "[1]; 1 h, pH 7, inhibited with O,O-Dimethyl-(2,2,2-trichlor-1-oxyäthyl) phosphonat, 1 h, read-out: Aktivität der Azetylcholinesterase in % (Reaktivationszeit in Stunden) 1", "result": 51, "unit": "%"}, {"measurement": "activity at 100 µM", "setting": "[1]; 1 h, pH 7, inhibited with O,O-Dimethyl-S-(1,2-dikarbäthoxyäthyl)-dithiophosphat, 1 h, read-out: Aktivität der Azetylcholinesterase in % (Reaktivationszeit in Stunden) 1", "result": 43, "unit": "%"}, {"measurement": "activity at 100 µM", "setting": "[1]; 2 h, pH 7, inhibited with O,O-Dimethyl-(2,2,2-trichlor-1-oxyäthyl) phosphonat, 2 h, read-out: Aktivität der Azetylcholinesterase in % (Reaktivationszeit in Stunden) 2", "result": 64.2, "unit": "%"}, {"measurement": "activity at 100 µM", "setting": "[1]; 2 h, pH 7, inhibited with O,O-Dimethyl-S-(1,2-dikarbäthoxyäthyl)-dithiophosphat, 2 h, read-out: Aktivität der Azetylcholinesterase in % (Reaktivationszeit in Stunden) 2", "result": 52.9, "unit": "%"}, {"measurement": "concentration at 2 h", "setting": "[2]; [3]", "result": 0.41, "unit": "µg/g"}, {"measurement": "concentration at 5 min", "setting": "[2]; [3]", "result": 3.6, "unit": "µg/g"}, {"measurement": "concentration at 20 min", "setting": "[2]; [3]", "result": 4.85, "unit": "µg/g"}, {"measurement": "concentration at 0.5 h", "setting": "[2]; [3]", "result": 4.35, "unit": "µg/g"}, {"measurement": "concentration at 1 h", "setting": "[2]; [3]", "result": 2.75, "unit": "µg/g"}, {"measurement": "concentration at 10 min", "setting": "[2]; [3]", "result": 4.42, "unit": "µg/g"}, {"measurement": "concentration at 2 h", "setting": "[2]; [4]", "result": 2.42, "unit": "µg/g"}, {"measurement": "concentration at 3 h", "setting": "[2]; blood, Blut, Dosis 50 mg/kg intramuskulär, 3 St., read-out: Konzentration (µg/g) 3 St.", "result": 1.95, "unit": "µg/g"}, {"measurement": "concentration at 5 min", "setting": "[2]; [4]", "result": 16.6, "unit": "µg/g"}, {"measurement": "concentration at 20 min", "setting": "[2]; [4]", "result": 18.4, "unit": "µg/g"}, {"measurement": "concentration at 0.5 h", "setting": "[2]; [4]", "result": 15.1, "unit": "µg/g"}, {"measurement": "concentration at 1 h", "setting": "[2]; [4]", "result": 11.5, "unit": "µg/g"}, {"measurement": "concentration at 10 min", "setting": "[2]; [4]", "result": 21.1, "unit": "µg/g"}, {"measurement": "concentration at 2 h", "setting": "[2]; [5]", "result": 0.34, "unit": "µg/g"}, {"measurement": "concentration at 5 min", "setting": "[2]; [5]", "result": 0.86, "unit": "µg/g"}, {"measurement": "concentration at 20 min", "setting": "[2]; [5]", "result": 2.32, "unit": "µg/g"}, {"measurement": "concentration at 0.5 h", "setting": "[2]; [5]", "result": 2.28, "unit": "µg/g"}, {"measurement": "concentration at 1 h", "setting": "[2]; [5]", "result": 1.5, "unit": "µg/g"}, {"measurement": "concentration at 10 min", "setting": "[2]; [5]", "result": 0.98, "unit": "µg/g"}]}]}
